The text below walks through data of ChEMBL document CHEMBL4406908, “Identification of neomacrophorins isolated from Trichoderma sp. 1212-03 as proteasome inhibitors” (Bioorg Med Chem, 2019).

The source made the active and inactive calls. The rule behind the calls is not given here.

For test [1], the system named is HL-60. Nature of the test: Induction of apoptosis in human HL60 cells assessed as ROS generation. It is filed as functional, cell-based.
The test system of test [2] is HL-60. Nature of the test: Inhibition of proteasome in human HL60 cells assessed as increase in accumulation of ubiquitinated proteins at 12.5 to 50 uM incubated for 4 hrs by Western blot analysis. In kind it is functional, cell-based. On the technique in general: In western blotting, separated proteins are transferred to a membrane and probed.
For test [3], the system named is HL-60. Nature of the test: Induction of apoptosis in human HL60 cells assessed as DNA fragmentation at 50 uM preincubated with 50 uM pan caspase inhibitor, z-VAD-FMK for 1 hr followed by incubation with compound for 4 hrs by ethidium bromide staining based agarose gel electrophoresis method. It is filed as functional, cell-based.
For test [4], the system named is HL-60. Nature of the test: Induction of apoptosis in human HL60 cells assessed as increase in DNA fragmentation incubated for 4 hrs by ethidium bromide staining based agarose gel electrophoresis method. In kind it is functional, cell-based.
Test [5] deals with HL-60. Nature of the test: Induction of apoptosis in human HL60 cells assessed as increase in cleavage of caspase 3 incubated for 4 hrs by Western blot analysis. In kind it is functional, cell-based.
Test [6] concerns the target Proteasome Macropain subunit (Homo sapiens) (UniProt P49721). Nature of the test: Inhibition of trypsin-like activity of beta2 subunit of 20S proteasome in human erythrocytes using Boc-LRR-MCA as substrate preincubated with enzyme for 10 mins followed by substrate addition and measured after 3 hrs by fluorescence spectrophotometric analysis. In kind it is cell-based.

In test [7] the test system is HL-60. In words: Antiproliferative activity against human HL60 cells assessed as cell growth inhibition incubated for 2 days by MTT assay. It is filed as functional, cell-based. The conditions noted are these: HL-60, 48 h. In general terms: Tetrazolium dyes change colour on reduction, which living cells bring about.
In test [8] the target is T1, Proteasome component C5 (Homo sapiens) (UniProt P20618).
T1 sequence (whole entry): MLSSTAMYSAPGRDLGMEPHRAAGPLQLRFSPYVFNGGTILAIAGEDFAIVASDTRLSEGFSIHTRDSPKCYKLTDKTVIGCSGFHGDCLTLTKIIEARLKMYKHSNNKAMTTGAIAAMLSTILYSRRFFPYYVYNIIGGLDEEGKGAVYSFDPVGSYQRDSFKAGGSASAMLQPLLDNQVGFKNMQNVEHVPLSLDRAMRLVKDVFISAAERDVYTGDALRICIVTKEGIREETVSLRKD
Nature of the test: Inhibition of caspase-like activity of beta1 subunit of 20S proteasome in human erythrocytes using Z-LLE-MCA as substrate preincubated with enzyme for 10 mins followed by substrate addition and measured after 3 hrs by fluorescence spectrophotometeric analysis.

Test [9] addresses T2, Proteasome Macropain subunit MB1 (Homo sapiens) (UniProt P28074).
T2 sequence (whole entry): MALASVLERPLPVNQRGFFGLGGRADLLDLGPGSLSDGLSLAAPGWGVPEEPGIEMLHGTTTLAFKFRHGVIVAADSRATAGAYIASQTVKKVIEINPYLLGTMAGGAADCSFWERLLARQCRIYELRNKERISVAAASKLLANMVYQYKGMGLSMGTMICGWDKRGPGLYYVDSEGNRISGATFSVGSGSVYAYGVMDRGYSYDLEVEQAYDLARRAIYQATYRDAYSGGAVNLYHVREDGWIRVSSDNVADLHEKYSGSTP
Nature of the test: (§1) Inhibition of chymotrypsin-like activity of beta5 subunit of 20S proteasome in human erythrocytes using Suc-LLVY-MCA as substrate preincubated with enzyme for 10 mins followed by substrate addition and measured after 3 hrs by fluorescence spectrophotometric analysis.

For test [10], the target named is T3, Proteasome Macropain subunit MB1 (Homo sapiens, UniProt P28074).
T3 sequence (P28074 whole entry): T2 sequence (whole entry)
The description is as §1.

The nature of test [11]: Binding affinity to NAC methyl ester in PBS-MeOH (7:3) solution at 1 mM by ESI/LC-MS analysis.
For test [12], the system named is HL-60. Nature of the test: Inhibition of proteasome in human HL60 cells assessed as increase in accumulation of ubiquitinated proteins at 1.25 to 5 uM incubated for 4 hrs by Western blot analysis. In kind it is functional, cell-based.
The subject of test [13] is HL-60. In words: Induction of apoptosis in human HL60 cells assessed as DNA fragmentation at 5 uM preincubated with 50 uM pan caspase inhibitor, z-VAD-FMK for 1 hr followed by incubation with compound for 4 hrs by ethidium bromide staining based agarose gel electrophoresis method. In kind it is functional, cell-based.
Test [14] deals with Proteasome. Nature of the test: Inhibition of proteasome in human HL60 cells assessed as accumulation of ubiquitinated proteins at 5 uM incubated for 4 hrs in presence of 5 mM nucleophile, NAC by Western blot analysis. In kind it is subcellular.
The subject of test [15] is HL-60. Nature of the test: Antiproliferative activity against human HL60 cells assessed as cell viability at 0.5 to 1 uM incubated for 48 hrs in presence of 5 mM nucleophile, NAC by trypan blue dye exclusion assay. It is filed as functional, cell-based.
Test [16] is described as follows: Binding affinity to NAC methyl ester in PBS-MeOH (7:3) solution assessed as methyl 3-[[(1R,6S)-6-[[(1S,4aR,6R,8aR)-6-hydroxy-5,5,8a-trimethyl-2-methylene-decalin-1-yl]methyl]-3-(hydroxymethyl)-2,5-dioxo-7-oxabicyclo[4.1.0]heptan-4-yl]sulfanyl]-2-acetamido-propanoate formation at 1 mM by HPLC analysis.
The test system of test [17] is HL-60. Nature of the test: Induction of apoptosis in human HL60 cells assessed as caspase 3 cleavage at 5 uM incubated for 4 hrs in presence of 5 mM nucleophile, NAC by Western blot analysis. It is filed as functional, cell-based.
In test [18] the test system is HL-60. In words: Antiproliferative activity against human HL60 cells assessed as cell viability at 5 to 10 uM incubated for 48 hrs in presence of 5 mM nucleophile, NAC by trypan blue dye exclusion assay. In kind it is functional, cell-based.
Test [19] is described as follows: Binding affinity to NAC methyl ester in PBS-MeOH (7:3) solution assessed as methyl 3-[[(1R,6S)-6-[[(1S,4aR,6R,8aR)-6-hydroxy-5,5,8a-trimethyl-2-methylene-decalin-1-yl]methyl]-2,5-dioxo-7-oxabicyclo[4.1.0]hept-3-en-3-yl]methylsulfanyl]-2-acetamido-propanoate formation at 1 mM by HPLC analysis.
Test [20] can be described thus: Binding affinity to NAC methyl ester in PBS-MeOH (7:3) solution assessed as methyl 4-[[(1R,6S)-6-[[(1S,4aR,6R,8aR)-6-hydroxy-5,5,8a-trimethyl-2-methylene-decalin-1-yl]methyl]-3-[(2-acetamido-3-methoxy-3-oxo-propyl)sulfanylmethyl]-2,5-dioxo-7-oxabicyclo[4.1.0]heptan-4-yl]sulfanyl]-3-acetamido-butanoate formation at 1 mM by HPLC analysis.
A short description of test [21]: Binding affinity to NAC methyl ester assessed as methyl 3-[[(1R,6S)-6-[[(1S,4aR,6R,8aR)-6-hydroxy-5,5,8a-trimethyl-2-methylene-decalin-1-yl]methyl]-2,5-dioxo-7-oxabicyclo[4.1.0]hept-3-en-3-yl]methylsulfanyl]-2-acetamido-propanoate formation by UV spectra analysis.
In test [22] the test system is HL-60. In words: Induction of apoptosis in human HL60 cells assessed as DNA fragmentation at 100 uM preincubated with 50 uM pan caspase inhibitor, z-VAD-FMK for 1 hr followed by incubation with compound for 4 hrs by ethidium bromide staining based agarose gel electrophoresis method. It is filed as functional, cell-based.
Test [23] addresses T1, Proteasome component C5 (Homo sapiens). In words: Inhibition of caspase-like activity of beta1 subunit of 20S proteasome in human erythrocytes at 100 uM using Z-LLE-MCA as substrate preincubated with enzyme for 10 mins followed by substrate addition and measured after 3 hrs by fluorescence spectrophotometeric analysis.
A short description of test [24]: Binding affinity to NAC methyl ester in PBS-MeOH (7:3) solution at 1 mM by HPLC analysis.
In test [25] the target is Proteasome Macropain subunit (Homo sapiens) (UniProt P49721). In words: Inhibition of trypsin-like activity of beta2 subunit of 20S proteasome in human erythrocytes at 100 uM using Boc-LRR-MCA as substrate preincubated with enzyme for 10 mins followed by substrate addition and measured after 3 hrs by fluorescence spectrophotometric analysis.
Chain of Proteasome Macropain subunit (Homo sapiens) (P49721 whole entry): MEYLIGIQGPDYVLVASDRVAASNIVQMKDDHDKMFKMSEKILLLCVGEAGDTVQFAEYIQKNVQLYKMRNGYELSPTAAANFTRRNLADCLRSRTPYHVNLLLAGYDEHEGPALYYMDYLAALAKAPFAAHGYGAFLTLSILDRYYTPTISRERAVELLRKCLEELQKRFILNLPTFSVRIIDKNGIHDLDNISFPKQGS
The subject of test [26] is HL-60. Nature of the test: Inhibition of proteasome in human HL60 cells assessed as accumulation of ubiquitinated proteins at 100 uM incubated for 4 hrs by Western blot analysis. It is filed as functional, cell-based.
Test [27] has as its target T2, Proteasome Macropain subunit MB1 (Homo sapiens). In words: Inhibition of chymotrypsin-like activity of beta5 subunit of 20S proteasome in human erythrocytes at 100 uM using Suc-LLVY-MCA as substrate preincubated with enzyme for 10 mins followed by substrate addition and measured after 3 hrs by fluorescence spectrophotometeric analysis.
Test [28] has as its system COLO 201. In words: Cytotoxicity against human COLO201 cells. It is filed as functional, cell-based.
Test [29] is described as follows: Binding affinity to NAC methyl ester in PBS-MeOH (7:3) solution assessed as disappearance of peak regarding parent compound at 1 mM measured within 1 min by HPLC analysis.

`C=C1CC[C@H]2C(C)(C)[C@H](O)CC[C@]2(C)[C@H]1C[C@]12O[C@H]1[C@H](O)C(COC(=O)C[C@H](C)O)=CC2=O`: the result in [1] and in [3] was inactive. In addition, the inhibition entry in test [2] is “Active”. The Activity result in test [4] and in test [5] was “Dose-dependent effect” throughout. The inhibition entry in [6], in test [8] and in test [9] was “Dose-dependent effect” in each case. For the same molecule, the results for the IC50 in test [7] and in [10] were 15 µM and 31.9 µM, respectively.
With `C=C1CC[C@H]2C(C)(C)[C@H](O)CC[C@]2(C)[C@H]1C[C@]12O[C@H]1[C@H](O)C(COC(=O)[C@H](O)[C@H](C)O)=CC2=O`, the result in test [1] and in test [3] was inactive. For the same molecule, the inhibition result in test [2] was “Active”. For the same molecule, the Activity result in test [4] and in [5] was “Dose-dependent effect” in each case. Besides, the inhibition result in [6], in test [8] and in [9] was “Dose-dependent effect” each time. Besides, the IC50 in [7] worked out at 21.6 µM; in test [10], 93.6 µM.
`C=C1CC[C@H]2C(C)(C)[C@H](O)CC[C@]2(C)[C@H]1C[C@]12O[C@H]1C(=O)C(CO)=CC2=O`: the result in test [11] and in test [16] was Active. The inhibition entry in test [12] was “Active”. Also, the result in test [13], in [1] and in [17] was inactive. In addition, the inhibition entry in [14] and in test [15] was “inactive” in each case. The Activity result in test [4] and in [5] was “Dose-dependent effect” in each case. In addition, the inhibition entry in test [6], in test [8] and in [9] was “Dose-dependent effect” throughout. For the same molecule, the IC50 in [7] is 0.3 µM; in test [10], 26.3 µM.
For `C=C1CC[C@H]2C(C)(C)[C@H](O)CC[C@]2(C)[C@H]1C[C@]12O[C@H]1C(=O)C(COC(=O)C[C@H](C)O)=CC2=O`, the result in [11], in [19], in test [20] and in test [21] was Active. Also, the outcome in test [18], in test [13], in [1] and in test [17] was inactive. Besides, the inhibition result in test [12] was “Active”. The inhibition entry in [14] was “inactive”. Besides, the Activity result in test [4] and in test [5] was “Dose-dependent effect” throughout. Besides, the inhibition result in test [6], in test [8] and in test [9] was “Dose-dependent effect” throughout. The IC50 in test [7] came to 1.3 µM; in [10] it was 5.3 µM.
`C=C1CC[C@H]2C(C)(C)[C@H](O)CC[C@]2(C)[C@H]1C[C@]12O[C@H]1[C@H](O)C(CO)=CC2=O`: the result in test [22], in [1] and in [24] was inactive. In addition, the inhibition entry in test [23], in test [25], in test [26] and in test [27] was “inactive” each time. For the same molecule, the Activity result in test [4] and in [5] was “Dose-dependent effect” throughout. Also, the IC50 in [7] is 25.3 µM; in [10] it was over 100 µM.
`C=C1CC[C@H]2C(C)(C)[C@H](O)CC[C@]2(C)[C@H]1C[C@]12O[C@H]1C(=O)C(COC(=O)[C@H](O)[C@H](C)O)=CC2=O`: the outcome in test [11], in test [19], in test [20], in [21] and in test [29] was Active. Also, the result in [18], in [13], in [1] and in [17] was inactive. The inhibition result in test [12] was “Active”. Moreover, in test [14], the inhibition entry is “inactive”. In addition, the Activity entry in [4] and in test [5] was “Dose-dependent effect” each time. Further, the half-inhibitory concentration (IC50) in [28] amounted to 96.6 µM; in test [7] it was 2.6 µM; in [10], 5.7 µM. For the same molecule, the inhibition result in [6], in [8] and in test [9] was “Dose-dependent effect” throughout.

As usually defined, the IC50 is the concentration at which inhibition is half-maximal.
